In experiment [1] the target is T1, Thyroid hormone receptor alpha (Homo sapiens, UniProt P10827).
T1 sequence (P10827 whole entry): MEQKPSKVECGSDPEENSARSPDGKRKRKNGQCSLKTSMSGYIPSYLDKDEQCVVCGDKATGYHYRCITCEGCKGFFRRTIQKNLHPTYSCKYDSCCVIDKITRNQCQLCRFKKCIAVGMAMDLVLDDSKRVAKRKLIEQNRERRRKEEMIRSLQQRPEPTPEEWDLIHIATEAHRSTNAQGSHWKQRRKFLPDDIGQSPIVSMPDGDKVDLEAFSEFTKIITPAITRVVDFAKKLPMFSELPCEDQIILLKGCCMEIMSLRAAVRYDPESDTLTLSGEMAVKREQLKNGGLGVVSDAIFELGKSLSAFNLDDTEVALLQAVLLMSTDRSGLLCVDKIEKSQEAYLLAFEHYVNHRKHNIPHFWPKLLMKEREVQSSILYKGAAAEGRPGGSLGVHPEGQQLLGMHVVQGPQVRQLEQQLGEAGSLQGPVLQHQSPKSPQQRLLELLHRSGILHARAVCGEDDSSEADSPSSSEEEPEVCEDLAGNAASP
As to the kind of experiment: Inhibitory activity against human TRAFalpha.

Experiment [2] addresses T2, Thyroid hormone receptor beta (Homo sapiens, UniProt P10828).
T2 sequence (P10828 whole entry): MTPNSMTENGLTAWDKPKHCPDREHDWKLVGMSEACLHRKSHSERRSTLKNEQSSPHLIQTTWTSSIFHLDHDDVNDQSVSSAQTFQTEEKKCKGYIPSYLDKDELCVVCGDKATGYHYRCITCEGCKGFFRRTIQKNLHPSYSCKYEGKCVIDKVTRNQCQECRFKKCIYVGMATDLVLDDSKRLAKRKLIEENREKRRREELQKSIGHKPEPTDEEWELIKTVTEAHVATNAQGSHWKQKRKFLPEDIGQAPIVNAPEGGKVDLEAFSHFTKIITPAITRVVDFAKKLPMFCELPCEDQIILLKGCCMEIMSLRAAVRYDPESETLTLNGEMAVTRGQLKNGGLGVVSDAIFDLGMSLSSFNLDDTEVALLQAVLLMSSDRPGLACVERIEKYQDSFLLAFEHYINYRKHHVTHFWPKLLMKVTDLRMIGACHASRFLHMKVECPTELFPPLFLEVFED
Briefly: Inhibitory activity against human TRAFbeta.

Experiment [3] concerns the target T2, Thyroid hormone receptor beta. As to the kind of experiment: Inhibitory activity against human Thyroid hormone receptor beta.
For experiment [4], the target named is T1, Thyroid hormone receptor alpha. As to the kind of experiment: Inhibitory activity against human Thyroid hormone receptor alpha.
Experiment [5] has as its target T3, Thyroid hormone receptor (Homo sapiens, UniProt P10827+P10828).
T3 sequence (P10827 whole entry): T1 sequence (P10827 whole entry)
T3 sequence (P10828 whole entry): T2 sequence (P10828 whole entry)
As to the kind of experiment: Binding affinity for human Thyroid hormone receptor. Format: protein-complex assay.

As a reminder, the IC50 is the concentration that gives 50% inhibition. Low readings indicate greater potency in that assay, high ones weaker potency in that assay. On to `Cc1oc2ccccc2c1Cc1cc(I)c(OCC(=O)O)c(I)c1`, for which the IC50 came out at 2200 nM in experiment [1] and 4100 nM in experiment [2].

Regarding `O=C(O)Cc1cc(Br)c(OCC2CCCCC2)c(Br)c1`, the 50% inhibitory concentration (IC50) in experiment [3] was found to be 770 nM; in experiment [4], 2700 nM; in experiment [1], 420 nM; in experiment [2], 520 nM.

As for `CCOc1c(Br)cc(CC(=O)O)cc1Br`, the values for the IC50 in experiment [3] and in experiment [4] were 32000 nM and 160000 nM, respectively.

In the case of `CCC(CC)COc1c(Br)cc(CCC(=O)O)cc1Br`, the 50% inhibitory concentration (IC50) is 810 nM in experiment [3] and 1600 nM in experiment [4].

Take `O=C(O)CCc1cc(Br)c(OCC2CCCCC2)c(Br)c1`: the IC50 in experiment [3] amounted to 190 nM; in experiment [4], 460 nM; in experiment [1], 530 nM; in experiment [2] it was 120 nM.

With `CCCCOc1c(Br)cc(CC(=O)O)cc1Br`, the IC50 worked out at 1900 nM in experiment [3] and 26000 nM in experiment [4].

With `CC(C)CCOc1c(Br)cc(CC(=O)O)cc1Br`, the figures for the IC50 in experiment [3] and in experiment [4] were 18000 nM and 13000 nM, respectively.

As to `CCCCCCOc1c(Br)cc(CC(=O)O)cc1Br`, the IC50 in experiment [3] was found to be 1500 nM; in experiment [4], 5200 nM; in experiment [1], 700 nM; in experiment [2] it was 800 nM.

In the case of `CCCCCOc1c(Br)cc(CC(=O)O)cc1Br`, the IC50 in experiment [3] is 5700 nM; in experiment [4], 20000 nM.

One may read the Ki as the dissociation constant of the complex between target and ligand, obtained from inhibition or displacement. A low value points to a stronger hold on the target. The compound `CC(C)c1cc(Oc2c(Br)cc(C(=O)O)cc2Br)cc(C(C)C)c1O` had a Ki in experiment [5] of 1380 nM. Further, the IC50 in experiment [1] worked out at 1100 nM; in experiment [2], 4500 nM.

Take `CCCCCCOc1c(Br)cc(CCC(=O)O)cc1Br`: the IC50 in experiment [3] is 360 nM; in experiment [4], 1100 nM; in experiment [1], 600 nM; in experiment [2], 1000 nM.

For the compound `CC(C)CCOc1c(Br)cc(CCC(=O)O)cc1Br`, the half-maximal inhibitory concentration (IC50) is 1800 nM in experiment [3] and 4400 nM in experiment [4].

With `CCC(CC)COc1c(Br)cc(CC(=O)O)cc1Br`, the IC50 in experiment [3] was 800 nM; in experiment [4], 6900 nM; in experiment [1] it was 820 nM; in experiment [2], 700 nM.

For the compound `CCCCc1oc2ccccc2c1C(=O)c1cc(I)c(CCN(CC)CC)c(I)c1`, the half-inhibitory concentration (IC50) is 600 nM in experiment [3], 650 nM in experiment [4], above 10000 nM in experiment [1] and above 10000 nM in experiment [2].

The values above are taken from ChEMBL document CHEMBL1143623, “Thyroid receptor ligands. 3. Design and synthesis of 3,5-dihalo-4-alkoxyphenylalkanoic acids as indirect antagonists of the thyroid hormone receptor” (J Med Chem, 2005).
